ChEMBL document CHEMBL4145533, “6,7-Dimorpholinoalkoxy quinazoline derivatives as potent EGFR inhibitors with enhanced antiproliferative activities against tumor cells” (Eur J Med Chem, 2018)
Activity calls are given as the source filed them. The calls are words filed in the database; no cut-off is given here.

Experiments:
[1] = test system: A549; assay: Antiproliferative activity against human A549 cells harboring wild type EGFR/K-ras mutant after 72 hrs by MTT assay; format: functional, cell-based; details: A549, 72 h
[2] = molecular target: T1, Epidermal growth factor receptor (Homo sapiens, UniProt P00533); details: A549, at 5 µM
T1 sequence (P00533 whole entry): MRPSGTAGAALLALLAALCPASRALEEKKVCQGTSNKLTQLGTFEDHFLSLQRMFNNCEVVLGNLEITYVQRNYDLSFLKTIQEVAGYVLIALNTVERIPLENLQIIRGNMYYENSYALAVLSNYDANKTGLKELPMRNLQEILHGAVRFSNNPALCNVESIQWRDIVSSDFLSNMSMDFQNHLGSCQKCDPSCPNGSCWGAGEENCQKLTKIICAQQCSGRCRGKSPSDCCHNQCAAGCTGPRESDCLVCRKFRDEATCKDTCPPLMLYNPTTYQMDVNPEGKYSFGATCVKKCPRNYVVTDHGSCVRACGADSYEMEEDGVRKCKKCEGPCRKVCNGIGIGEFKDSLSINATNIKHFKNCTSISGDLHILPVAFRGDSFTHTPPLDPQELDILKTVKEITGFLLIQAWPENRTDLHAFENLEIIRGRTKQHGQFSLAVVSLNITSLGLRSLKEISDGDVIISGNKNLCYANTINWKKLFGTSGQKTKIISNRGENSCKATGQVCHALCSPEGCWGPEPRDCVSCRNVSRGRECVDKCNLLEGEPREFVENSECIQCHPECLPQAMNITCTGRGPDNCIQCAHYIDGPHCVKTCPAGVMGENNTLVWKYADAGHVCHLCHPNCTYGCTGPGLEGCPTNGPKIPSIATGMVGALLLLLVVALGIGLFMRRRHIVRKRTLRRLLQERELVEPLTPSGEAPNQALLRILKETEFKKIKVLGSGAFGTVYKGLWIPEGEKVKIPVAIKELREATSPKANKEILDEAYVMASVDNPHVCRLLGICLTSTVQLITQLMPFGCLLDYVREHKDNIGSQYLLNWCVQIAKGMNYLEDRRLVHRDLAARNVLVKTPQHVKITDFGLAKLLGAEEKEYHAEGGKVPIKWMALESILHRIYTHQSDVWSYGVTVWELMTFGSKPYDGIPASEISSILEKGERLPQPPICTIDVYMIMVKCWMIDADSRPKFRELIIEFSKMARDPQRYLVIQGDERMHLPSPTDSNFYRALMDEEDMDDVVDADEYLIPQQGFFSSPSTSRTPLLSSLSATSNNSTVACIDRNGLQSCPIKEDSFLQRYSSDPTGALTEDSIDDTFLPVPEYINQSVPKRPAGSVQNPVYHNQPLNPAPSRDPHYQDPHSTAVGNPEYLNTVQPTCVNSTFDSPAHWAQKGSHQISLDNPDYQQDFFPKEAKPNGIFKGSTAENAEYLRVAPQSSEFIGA
Description: Inhibition of EGF-induced EGFR phosphorylation at Tyrosine residue in human A549 cells at 5 uM preincubated for 2 hrs followed by EGF stimulation measured after 10 mins by Western blot analysis

[3] = molecular target: T1, Epidermal growth factor receptor; assay: Inhibition of EGF-induced EGFR phosphorylation at Tyrosine residue in human A549 cells at 0.2 uM preincubated for 2 hrs followed by EGF stimulation measured after 10 mins by Western blot analysis; format: cell-based
[4] = test system: A549; assay: Cell cycle arrest in human A549 cells assessed as accumulation at S phase at 1 uM after 48 hrs by propidium iodide satining based FACS analysis (reference value: 34.45%); format: functional
[5] = test system: A549; assay: Induction of apoptosis in human A549 cells assessed as viable cells at 3 uM after 48 hrs by Annexin V-FITC/propidium iodide satining based FACS analysis (reference value: 95.87%); format: functional; details: A549, 48 h, read-out: Activity
[6] = test system: A549; assay: Cell cycle arrest in human A549 cells assessed as accumulation at G2/M phase at 1 uM after 48 hrs by propidium iodide satining based FACS analysis (reference value: 16.09%); format: functional
[7] = test system: A549; assay: Effect on total EGFR protein expression in human A549 cells at 0.2 to 5 uM after 2 hrs by Western blot analysis; format: ADME, cell-based; details: a549, 2 h
[8] = molecular target: T1, Epidermal growth factor receptor; details: A549, at 5 µM; remark: listed apart in the source
Description: Inhibition of EGF-induced EGFR activation in human A549 cells assessed as reduction in Akt phosphorylation at S473 residue at 5 uM preincubated for 2 hrs followed by EGF stimulation measured after 10 mins by Western blot analysis

[9] = test system: NCI-H1975; assay: Antiproliferative activity against human NCI-H1975 cells harboring EGFR L858R/T790M double mutant after 72 hrs by MTT assay; format: functional, cell-based; details: NCI-H1975, 72 h
[10] = molecular target: T1, Epidermal growth factor receptor; details: A549, at 5 µM; remark: listed apart in the source
Description: Inhibition of EGF-induced EGFR phosphorylation at Y1086 residue in human A549 cells at 5 uM preincubated for 2 hrs followed by EGF stimulation measured after 10 mins by Western blot analysis

[11] = molecular target: T1, Epidermal growth factor receptor; assay: Inhibition of EGF-induced EGFR activation in human A549 cells assessed as reduction in ERK1/2 phosphorylation at T202/Y204 residues at 0.2 uM preincubated for 2 hrs followed by EGF stimulation measured after 10 mins by Western blot analysis; format: cell-based
[12] = test system: Epidermal growth factor receptor (Homo sapiens), P00533 [L858R,T790M]; assay: Inhibition of EGF-induced EGFR L858R/T790M double mutant activation in human NCI-H1975 cells assessed as reduction in Akt phosphorylation at S473 residue at 5 uM preincubated for 2 hrs followed by EGF stimulation measured after 10 mins by Western blot analysis; format: cell-based
Epidermal growth factor receptor (Homo sapiens), P00533 [L858R,T790M], sequence (P00533 whole entry T790M/L858R, looked up): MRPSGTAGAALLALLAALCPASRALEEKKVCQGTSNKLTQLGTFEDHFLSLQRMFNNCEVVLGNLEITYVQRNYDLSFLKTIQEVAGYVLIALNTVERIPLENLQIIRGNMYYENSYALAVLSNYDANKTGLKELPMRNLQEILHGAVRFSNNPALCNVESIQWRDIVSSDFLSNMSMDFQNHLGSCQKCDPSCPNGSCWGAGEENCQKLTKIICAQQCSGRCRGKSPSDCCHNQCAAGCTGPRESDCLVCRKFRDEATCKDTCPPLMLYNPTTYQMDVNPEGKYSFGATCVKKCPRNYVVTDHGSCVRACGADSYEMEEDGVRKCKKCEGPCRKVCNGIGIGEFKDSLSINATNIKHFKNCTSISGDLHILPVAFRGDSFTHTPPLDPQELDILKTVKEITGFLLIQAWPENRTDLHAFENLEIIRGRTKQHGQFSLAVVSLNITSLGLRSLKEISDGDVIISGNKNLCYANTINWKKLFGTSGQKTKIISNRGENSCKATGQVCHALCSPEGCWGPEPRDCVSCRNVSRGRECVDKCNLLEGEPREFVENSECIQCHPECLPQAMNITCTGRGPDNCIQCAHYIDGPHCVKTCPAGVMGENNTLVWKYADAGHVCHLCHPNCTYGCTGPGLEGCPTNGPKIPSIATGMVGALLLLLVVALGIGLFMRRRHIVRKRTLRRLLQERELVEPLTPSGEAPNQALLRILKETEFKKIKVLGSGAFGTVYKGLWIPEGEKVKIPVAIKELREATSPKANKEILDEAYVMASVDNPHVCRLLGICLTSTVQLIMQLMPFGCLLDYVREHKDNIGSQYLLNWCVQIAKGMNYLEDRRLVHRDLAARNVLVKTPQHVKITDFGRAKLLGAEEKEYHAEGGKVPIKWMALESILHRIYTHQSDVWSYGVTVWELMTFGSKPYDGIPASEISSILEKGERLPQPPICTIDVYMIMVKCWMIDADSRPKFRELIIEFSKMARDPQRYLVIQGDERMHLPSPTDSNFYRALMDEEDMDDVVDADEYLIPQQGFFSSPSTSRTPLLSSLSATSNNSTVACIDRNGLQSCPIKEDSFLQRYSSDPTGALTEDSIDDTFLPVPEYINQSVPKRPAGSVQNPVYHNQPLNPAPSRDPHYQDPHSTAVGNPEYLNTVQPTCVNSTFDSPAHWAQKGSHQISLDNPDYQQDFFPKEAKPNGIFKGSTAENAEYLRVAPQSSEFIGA

[13] = test system: Epidermal growth factor receptor (Homo sapiens), P00533 [L858R,T790M]; assay: Inhibition of EGF-induced EGFR L858R/T790M double mutant activation in human NCI-H1975 cells assessed as reduction in ERK1/2 phosphorylation at T202/Y204 residues at 5 uM preincubated for 2 hrs followed by EGF stimulation measured after 10 mins by Western blot analysis; format: cell-based
[14] = test system: A549; assay: Induction of apoptosis in human A549 cells assessed as necrotic cells at 1 uM after 48 hrs by Annexin V-FITC/propidium iodide satining based FACS analysis (reference value: 0.14%); format: functional
[15] = molecular target: T1, Epidermal growth factor receptor; format: cell-based, HEK293
Description: Inhibition of recombinant human N-terminal His-tagged EGFR (1 to 645 residues) expressed in HEK293 cells by ELISA

[16] = test system: A549; assay: Induction of apoptosis in human A549 cells assessed as early apoptotic cells at 2 uM after 48 hrs by Annexin V-FITC/propidium iodide satining based FACS analysis (reference value: 2.78%); format: functional
[17] = test system: A549; assay: Induction of apoptosis in human A549 cells assessed as viable cells at 4 uM after 48 hrs by Annexin V-FITC/propidium iodide satining based FACS analysis (reference value: 95.87%); format: functional; details: A549, 48 h, read-out: Activity
[18] = test system: HCC827; assay: Antiproliferative activity against human HCC827 cells harboring EGFR E746-A750 del mutant after 72 hrs by MTT assay; format: functional, cell-based; details: HCC827, 72 h
[19] = test system: Epidermal growth factor receptor (Homo sapiens), P00533 [L858R,T790M]; assay: Inhibition of EGF-induced EGFR L858R/T790M double mutant phosphorylation at Y992 residue in human NCI-H1975 cells preincubated for 2 hrs followed by EGF stimulation measured after 10 mins by Western blot analysis; format: cell-based
[20] = molecular target: T1, Epidermal growth factor receptor; details: A549, at 5 µM; remark: listed apart in the source
Description: Inhibition of EGF-induced EGFR activation in human A549 cells assessed as reduction in ERK1/2 phosphorylation at T202/Y204 residues at 5 uM preincubated for 2 hrs followed by EGF stimulation measured after 10 mins by Western blot analysis

[21] = molecular target: T1, Epidermal growth factor receptor; assay: Inhibition of EGF-induced EGFR phosphorylation at Y992 residue in human A549 cells at 0.2 uM preincubated for 2 hrs followed by EGF stimulation measured after 10 mins by Western blot analysis; format: cell-based
[22] = molecular target: Epidermal growth factor receptor (Homo sapiens, UniProt P00533, T790M); assay: Inhibition of EGFR T790M mutant (unknown origin) preincubated for 10 mins followed by TK substrate-botion addition measured after 1 hr by spectrophotometric method
Epidermal growth factor receptor (Homo sapiens, UniProt P00533, T790M), sequence (P00533 25-1210 T790M limits assumed): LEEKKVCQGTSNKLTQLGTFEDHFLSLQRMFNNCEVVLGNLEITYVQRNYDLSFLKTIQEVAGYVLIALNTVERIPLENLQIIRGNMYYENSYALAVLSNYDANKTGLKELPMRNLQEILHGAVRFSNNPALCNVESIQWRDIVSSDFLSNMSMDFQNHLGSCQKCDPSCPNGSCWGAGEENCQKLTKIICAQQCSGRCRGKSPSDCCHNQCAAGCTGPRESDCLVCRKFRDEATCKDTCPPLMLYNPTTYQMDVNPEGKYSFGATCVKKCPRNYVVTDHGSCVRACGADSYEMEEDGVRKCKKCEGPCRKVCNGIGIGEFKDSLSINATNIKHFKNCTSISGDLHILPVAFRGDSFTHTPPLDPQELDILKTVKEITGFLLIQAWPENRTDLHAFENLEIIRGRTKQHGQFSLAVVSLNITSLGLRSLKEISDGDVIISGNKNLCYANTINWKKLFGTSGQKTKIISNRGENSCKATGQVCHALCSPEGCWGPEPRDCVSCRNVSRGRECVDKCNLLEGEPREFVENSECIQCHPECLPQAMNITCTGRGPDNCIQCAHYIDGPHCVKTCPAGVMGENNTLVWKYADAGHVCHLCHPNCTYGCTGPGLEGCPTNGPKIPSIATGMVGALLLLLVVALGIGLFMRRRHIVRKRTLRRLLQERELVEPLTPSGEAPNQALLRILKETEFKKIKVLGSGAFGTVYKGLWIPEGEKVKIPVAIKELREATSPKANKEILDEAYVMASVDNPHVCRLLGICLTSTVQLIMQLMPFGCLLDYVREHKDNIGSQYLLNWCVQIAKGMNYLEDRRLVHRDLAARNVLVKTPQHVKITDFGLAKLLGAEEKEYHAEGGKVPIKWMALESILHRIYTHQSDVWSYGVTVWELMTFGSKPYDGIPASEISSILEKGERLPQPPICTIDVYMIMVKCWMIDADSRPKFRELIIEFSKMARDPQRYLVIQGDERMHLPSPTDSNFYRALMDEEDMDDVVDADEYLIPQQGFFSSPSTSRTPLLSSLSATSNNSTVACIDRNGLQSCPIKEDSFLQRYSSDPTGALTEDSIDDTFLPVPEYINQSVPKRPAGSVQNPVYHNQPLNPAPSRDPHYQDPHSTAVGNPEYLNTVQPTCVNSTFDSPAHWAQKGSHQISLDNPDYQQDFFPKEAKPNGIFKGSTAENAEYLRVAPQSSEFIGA

[23] = test system: A549; assay: Cell cycle arrest in human A549 cells assessed as accumulation at G0/G1 phase at 5 uM after 48 hrs by propidium iodide satining based FACS analysis (reference value: 48.87%); format: functional
[24] = test system: A549; assay: Induction of apoptosis in human A549 cells assessed as early apoptotic cells at 3 uM after 48 hrs by Annexin V-FITC/propidium iodide satining based FACS analysis (reference value: 2.78%); format: functional
[25] = test system: A549; assay: Cell cycle arrest in human A549 cells assessed as accumulation at G2/M phase at 0.5 uM after 48 hrs by propidium iodide satining based FACS analysis (reference value: 16.09%); format: functional
[26] = molecular target: T1, Epidermal growth factor receptor; assay: Inhibition of EGF-induced EGFR phosphorylation at Y1086 residue in human A549 cells at 0.2 uM preincubated for 2 hrs followed by EGF stimulation measured after 10 mins by Western blot analysis; format: cell-based

- IC50 [1]: 1.65 µM
- inhibition [2]: Active
- inhibition [3]: Active
- inhibition [8]: Active
- IC50 [9]: 4.87 µM
- inhibition [10]: Active
- inhibition [11]: Active
- inhibition [12]: Active
- inhibition [13]: Active
- IC50 [15]: 0.007 µM
- IC50 [18]: 0.37 µM
- inhibition [19]: Dose-dependent effect
- inhibition [20]: Active
- inhibition [21]: Active
- IC50 [22]: 0.0093 µM
- inhibition [26]: Active
Structure (SMILES): Fc1cccc(COc2ccc(Nc3ncnc4cc(OCCCN5CCOCC5)c(OCCCN5CCOCC5)cc34)cc2Cl)c1
- Activity [4]: 34.83%
- viability at 3 µM [5]: 82.8%
- Activity [6]: 11.69%
- Activity [7]: Non-Toxic
- Activity [14]: 0.4%
- Activity [16]: 4.46%
- viability at 4 µM [17]: 48.4%
- Activity [23]: 73.54%
- Activity [24]: 8.52%
- Activity [25]: 14.96%
